Results as given in PMC8561388 (mBio, 2021).
Where two headings read alike, the source gives them in different places.

Key:
[1] = system: wild-type A75/17-CDV strain (A75^neon); assay type: cell-based, canine distemper virus
MeV polymerase complex = assay type: cell-based, measles virus
[2] = Cell viability (cytotoxicity), NCI-H358; assay type: cell-based; conditions: human, NCI-H358 cells
Vero-cSLAM cells [3] = conditions: 42 h incubation, flow cytometry
[4] = Cell viability (cytotoxicity), HEp-2; assay type: cell-based; conditions: human, HEp-2 cells
MeV (ICB) = assay: microbe, parasite or virus in culture; assay type: cell-based; conditions: Measles morbillivirus, NCI-H358 cells
[5] = system: wild-type A75/17-CDV (A75^neon/nLucP); assay: microbe, parasite or virus in culture; assay type: cell-based; conditions: canine distemper virus, Vero-cSLAM cells
[6] = Cell viability (cytotoxicity), Bsr-T7; assay type: cell-based; conditions: hamster, Bsr-T7 cells
PIV-5^neon/nLucP = assay: microbe, parasite or virus in culture; assay type: cell-based, parainfluenza virus type 5; conditions: PIV-5, Vero cells
[7] = Cell viability (cytotoxicity), Vero-cNectin-4; assay type: cell-based; conditions: monkey, Vero-cNectin-4 cells
[8] = system: attenuated OP-CDV strain (OP^neon/nLucP); assay: microbe, parasite or virus in culture; assay type: cell-based, canine distemper virus
VSV = assay type: cell-based, vesicular stomatitis virus; conditions: Vero cells
[9] = Cell viability (cytotoxicity), MDCK; assay type: cell-based, Canine; conditions: dog, MDCK cells
[10] = Cell viability (cytotoxicity), P114; assay type: cell-based, Canine; conditions: dog, P114 cells
Vero-cSLAM cells [11] = assay: Cell viability (cytotoxicity), Vero-cSLAM
virions (OP^neon/nLucP) = assay: Virucidal effect; assay type: cell-based, canine distemper virus; conditions: 1 h at 4°C, then dilution to noninhibitory concentration, Vero-cSLAM
Experimental: The virus-compound mixtures were then diluted 10-fold, thereby reaching noninhibitory concentrations. […] Upon inoculation of the diluted mixtures in Vero-cSLAM cells, the viral infectivity was assessed.
OP^neon/nLucP (MOI of 4) was added in a plate containing or not each compound and incubated for 60 min at 4°C. Afterward, the virus and compound mixture was diluted to a noninhibitory drug concentration and added to a monolayer of Vero-cSLAM cells. After 24 h, luminescence was measured using the Nano-Glo live cell assay system (Promega).

MeV (Edm) = assay: microbe, parasite or virus in culture; assay type: cell-based; conditions: Measles morbillivirus
[12] = biological target: membrane-anchored OP-CDV F-protein (Canine distemper virus, UniProt P12569); assay: Heat shock resistance of prefusion F conformation (flow cytometry); conditions: heat shock 65°C; compound 3 75 μM, compound 1 10 μM
[13] = Cell viability (cytotoxicity), Vero; assay type: cell-based; conditions: monkey, Vero cells
[14] = system: CDV-induced membrane fusion between effector and target cells; assay: Quantitative cell-to-cell fusion assay; assay type: cell-based; conditions: exclusively at high concentrations
Source text: It is assumed that small molecules at high concentrations may lead to aggregation effects or nonspecific binding.
Measurement of membrane fusion between effector and target cells in presence of increasing concentration of either compound 3 or 1. […] Download FIG S4, TIF file, 3.0 MB.

CDV polymerase complex = CDV polymerase complex (Canine distemper virus, UniProt P06940+P24658); assay: cell-based; assay type: cell-based; conditions: for effect on minigenome luciferase activity (RdRp complex activity): compound 1 10 μM, compound 3 50 μM, Bsr-T7 cells, 48 h
RSV-GFP = assay: microbe, parasite or virus in culture; assay type: cell-based, respiratory syncytial virus; conditions: HEp-2 cells, plaque reduction
in vitro = conditions: monkey, Vero-cSLAM cells
OP^neon/nLucP = assay: Time-of-addition assay; assay type: cell-based, canine distemper virus; conditions: 10 μM, compounds added after 20 h of infection, readout 48 h
Experimental: To this end, Vero-cSLAM cells were treated with compound 1 at the time of infection or at distinct time points postinfection. In this set of experiments, two previously characterized compounds (compound 3 and ERDRP-0519 [Fig. 1A]) targeting two distinct stages of the viral life cycle (entry and replication, respectively) were added as controls.
Vero-cSLAM cells (96-well plate format) were infected with OP^neon/nLucP at an MOI of 0.04, in the presence of compound 3G (final concentration, 30 μM), ERDRP-0519 (final concentration, 10 μM), or ZHAWO9045 (final concentration 10 μM) added at the indicated time points. Control cells were infected in the presence of equal amounts of DMSO. At 48 h postinfection, luminescence was measured using the Nano-Glo live cell assay system (Promega).

[15] = Cell viability (cytotoxicity), PGSA745-EFNB2; assay type: cell-based; conditions: hamster, PGSA745-EFNB2 cells
rNiV-EGFP = assay: microbe, parasite or virus in culture; assay type: cell-based, Nipah virus; conditions: Henipavirus nipahense
[16] = canine distemper virus, 24 h, read-out: IC50 (CDV), Table S5, full list, Vero-cSLAM, CDV OP^neon/nLuc, 24 h postinfection, interval in brackets
[17] = canine distemper virus, BSR-T7, in Mesocricetus auratus, CDV (OP), Bsr-T7 cells (hamster)
[18] = canine distemper virus, CDV (OP), Vero-cSLAM cells
[19] = canine distemper virus, MDCK, in Canis lupus familiaris, CDV (OP), MDCK cells (canine)
[20] = canine distemper virus, Vero, CDV (OP), Vero cells
[21] = canine distemper virus, in Canis lupus familiaris, CDV (OP), P114 cells (canine)
[22] = human respiratory syncytial virus, HEp-2, RSV
[23] = canine distemper virus, 24 h, Table S3, aromatic heterocycles and N-alkylated aminothiazoles, Vero-cSLAM, CDV OP^neon/nLuc, 24 h postinfection, interval in brackets

Chain of CDV polymerase complex (P24658 whole entry): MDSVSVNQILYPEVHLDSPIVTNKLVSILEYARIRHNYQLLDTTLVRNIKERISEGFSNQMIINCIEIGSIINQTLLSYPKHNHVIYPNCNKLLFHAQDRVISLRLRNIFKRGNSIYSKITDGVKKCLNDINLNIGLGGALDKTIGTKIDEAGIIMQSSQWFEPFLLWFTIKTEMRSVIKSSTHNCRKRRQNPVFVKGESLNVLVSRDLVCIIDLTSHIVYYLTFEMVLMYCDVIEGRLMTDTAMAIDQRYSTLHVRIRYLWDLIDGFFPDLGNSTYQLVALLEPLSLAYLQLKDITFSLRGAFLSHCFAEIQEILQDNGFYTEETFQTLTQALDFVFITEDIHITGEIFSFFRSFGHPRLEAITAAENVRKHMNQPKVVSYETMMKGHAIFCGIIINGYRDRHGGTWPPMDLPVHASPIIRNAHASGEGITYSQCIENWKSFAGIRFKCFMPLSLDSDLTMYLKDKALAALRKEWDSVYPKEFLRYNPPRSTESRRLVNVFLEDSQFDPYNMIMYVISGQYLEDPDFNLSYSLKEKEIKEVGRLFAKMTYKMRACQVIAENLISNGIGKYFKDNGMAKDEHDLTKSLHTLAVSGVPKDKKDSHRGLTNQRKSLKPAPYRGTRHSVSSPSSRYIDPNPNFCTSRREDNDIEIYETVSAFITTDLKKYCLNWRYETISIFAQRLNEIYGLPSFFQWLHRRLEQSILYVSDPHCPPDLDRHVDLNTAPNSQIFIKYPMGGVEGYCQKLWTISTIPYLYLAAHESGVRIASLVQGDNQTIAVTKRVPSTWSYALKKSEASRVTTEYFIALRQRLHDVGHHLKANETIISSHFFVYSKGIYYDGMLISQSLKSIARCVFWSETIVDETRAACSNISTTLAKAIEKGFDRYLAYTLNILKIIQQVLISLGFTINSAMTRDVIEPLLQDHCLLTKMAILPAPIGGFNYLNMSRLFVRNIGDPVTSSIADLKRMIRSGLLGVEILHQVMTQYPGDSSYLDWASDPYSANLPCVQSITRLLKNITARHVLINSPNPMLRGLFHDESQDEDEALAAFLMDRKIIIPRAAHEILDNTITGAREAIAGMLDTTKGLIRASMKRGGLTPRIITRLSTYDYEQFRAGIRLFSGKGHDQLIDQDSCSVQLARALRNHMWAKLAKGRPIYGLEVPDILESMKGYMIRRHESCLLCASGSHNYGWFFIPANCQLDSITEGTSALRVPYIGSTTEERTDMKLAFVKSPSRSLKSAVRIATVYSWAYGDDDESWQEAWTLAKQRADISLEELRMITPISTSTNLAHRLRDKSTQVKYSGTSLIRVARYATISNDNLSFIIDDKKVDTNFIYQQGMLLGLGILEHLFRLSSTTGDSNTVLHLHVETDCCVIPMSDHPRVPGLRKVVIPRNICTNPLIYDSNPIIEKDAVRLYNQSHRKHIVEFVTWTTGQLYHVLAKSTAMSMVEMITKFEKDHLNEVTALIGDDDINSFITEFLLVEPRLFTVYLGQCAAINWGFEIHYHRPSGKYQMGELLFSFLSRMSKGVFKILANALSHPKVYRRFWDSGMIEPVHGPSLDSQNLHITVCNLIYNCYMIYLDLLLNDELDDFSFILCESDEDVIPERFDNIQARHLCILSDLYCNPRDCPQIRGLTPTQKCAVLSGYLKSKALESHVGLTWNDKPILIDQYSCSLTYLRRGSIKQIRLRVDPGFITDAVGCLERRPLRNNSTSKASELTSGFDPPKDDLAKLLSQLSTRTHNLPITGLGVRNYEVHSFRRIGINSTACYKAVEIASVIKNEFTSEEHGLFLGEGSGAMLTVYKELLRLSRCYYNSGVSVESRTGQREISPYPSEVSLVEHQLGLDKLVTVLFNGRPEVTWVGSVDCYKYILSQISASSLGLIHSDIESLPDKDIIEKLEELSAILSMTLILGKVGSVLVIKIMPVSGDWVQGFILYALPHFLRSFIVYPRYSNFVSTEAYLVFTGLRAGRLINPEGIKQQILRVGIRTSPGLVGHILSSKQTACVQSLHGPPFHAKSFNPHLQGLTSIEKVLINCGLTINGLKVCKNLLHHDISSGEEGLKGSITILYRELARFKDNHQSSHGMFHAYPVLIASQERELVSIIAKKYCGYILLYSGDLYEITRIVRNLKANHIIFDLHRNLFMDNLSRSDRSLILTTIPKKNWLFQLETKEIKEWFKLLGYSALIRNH
Chain of CDV polymerase complex (P06940 whole entry): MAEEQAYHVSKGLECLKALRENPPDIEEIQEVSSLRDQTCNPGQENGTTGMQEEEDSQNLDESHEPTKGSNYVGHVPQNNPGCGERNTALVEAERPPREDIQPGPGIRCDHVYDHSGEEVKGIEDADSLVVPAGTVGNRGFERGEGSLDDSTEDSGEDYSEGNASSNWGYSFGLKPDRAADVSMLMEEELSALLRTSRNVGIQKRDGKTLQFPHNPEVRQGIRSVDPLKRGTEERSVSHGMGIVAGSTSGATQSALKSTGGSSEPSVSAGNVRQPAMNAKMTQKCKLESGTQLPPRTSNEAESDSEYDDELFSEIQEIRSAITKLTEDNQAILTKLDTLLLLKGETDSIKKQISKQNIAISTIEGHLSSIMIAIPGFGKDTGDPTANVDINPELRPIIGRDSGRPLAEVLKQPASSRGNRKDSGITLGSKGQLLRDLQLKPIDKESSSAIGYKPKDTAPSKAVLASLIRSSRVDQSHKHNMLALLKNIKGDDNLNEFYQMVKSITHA
Chain of membrane-anchored OP-CDV F-protein (P12569 136-224): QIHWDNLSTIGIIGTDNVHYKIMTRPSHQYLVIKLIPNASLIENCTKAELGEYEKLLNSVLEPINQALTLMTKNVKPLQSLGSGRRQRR
Chain of membrane-anchored OP-CDV F-protein (P12569 225-662): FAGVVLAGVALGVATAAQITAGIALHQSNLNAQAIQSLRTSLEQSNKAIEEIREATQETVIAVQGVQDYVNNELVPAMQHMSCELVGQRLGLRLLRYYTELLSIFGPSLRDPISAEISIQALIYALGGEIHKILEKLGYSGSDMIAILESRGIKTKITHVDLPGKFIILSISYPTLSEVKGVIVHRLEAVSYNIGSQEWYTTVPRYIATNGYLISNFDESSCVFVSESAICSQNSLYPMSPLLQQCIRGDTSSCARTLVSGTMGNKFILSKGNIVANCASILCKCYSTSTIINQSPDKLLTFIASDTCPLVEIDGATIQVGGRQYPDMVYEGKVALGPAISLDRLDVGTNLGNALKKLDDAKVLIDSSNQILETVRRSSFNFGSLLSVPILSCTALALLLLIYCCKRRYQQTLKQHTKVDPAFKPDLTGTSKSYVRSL

Cn1nc(C(F)(F)F)cc1C(=O)Nc1ccc(S(=O)(=O)N2CCCC[C@H]2CCN2CCOCC2)cc1 [ERDRP-0519, reference compound]
tolerated dose at the end of adaptation ([1]; stepwise adaptation of A75/17-CDV): ≥ 30 µM

CC1(C)Cc2cccc(OCC(=O)Nc3nc4ccccc4s3)c2O1 [compound 1]
effect on MeV polymerase activity (minigenome) (MeV polymerase complex): inhibition of MeV polymerase activity was recorded
CC50 [2]: 50 µM
concentration at which impact on cell cycle progression (G1 arrest) is statistically significant (Vero-cSLAM cells [3]): 30 µM
CC50 [4]: 110 µM
IC50 (MeV (ICB)): 0.37 µM
IC50 [5]: ~0.7 µM
CC50 [6]: 50 µM
IC50 (PIV-5^neon/nLucP): 7.2 µM
IC50 (PIV-5^neon/nLucP; parainfluenza virus 5, Vero): ~7 µM
CC50 [7]: 43 µM
IC50 ([8]; CDV (OP), Bsr-T7 cells (hamster)): 7.3 µM
IC50 [8, 16]: 0.53 µM
IC50 ([8]; canine distemper virus, 24 h, Vero-cSLAM, CDV OP^neon/nLuc, luciferase 24 h postinfection): 0.52 µM
IC50 [8, 17]: ~7 µM
IC50 ([8]; canine distemper virus, CDV (OP), Vero-cNectin-4 cells): 0.43 µM
IC50 [8, 18]: ~0.45 µM
IC50 [8, 19]: 30 µM
IC50 [8, 20]: 0.4 µM
IC50 [8, 21]: 2.6 µM
IC50 ([8]; canine distemper virus, read-out: IC50 values, summary for MeV and CDV): 0.2 to 0.7 µM
antiviral activity against VSV (VSV): did not display any activity
CC50 [9]: 99 µM
CC50 [10]: 57 µM
CC50 (Vero-cSLAM cells [11]): ~50 µM
emergence of viral resistance ([1]; 83-day study, four separate replicates): did not induce any detectable viral resistance
inhibitory activity after 10-fold dilution of virus-compound mixture (virucidal activity) (virions (OP^neon/nLucP)): entirely lost its inhibitory activity
IC50 (MeV (Edm); NCI-H358): 0.52 µM
IC50 (MeV (Edm); Vero): 0.25 µM
stabilizing effect on prefusion F-trimers [12]: did not
CC50 [13]: 46 µM
effect on membrane fusion activity [14]: enhance fusion activity
inhibition at 10 µM (CDV polymerase complex; BSR-T7, read-out: inhibition of polymerase activity in the minigenome assay): ~50%
effect on minigenome luciferase activity (RdRp complex activity) (CDV polymerase complex): sufficient to significantly inhibit the luciferase activity
IC50 (RSV-GFP; RSV): 5.9 µM
IC50 (RSV-GFP; [22]): ~6 µM
CC50 (in vitro): 52 µM
time-of-addition inhibition profile (OP^neon/nLucP): acted like ERDRP-0519

CN(C(=O)COc1cccc2c1OC(C)(C)C2)c1nc2c(s1)CCCC2 [compound 2]
concentration at which impact on cell cycle progression (G1 arrest) is statistically significant (Vero-cSLAM cells [3]): 1 µM
CC50 [4]: 51 µM
IC50 [5]: 0.0032 µM
IC50 (PIV-5^neon/nLucP; parainfluenza virus 5, Vero): 0.015 µM
IC50 ([8]; Vero-cSLAM, CDV OP^neon/nLuc, luciferase 24 h postinfection): single-digit nanomolar
IC50 [8, 23]: 0.0084 µM
IC50 [8, 17]: 0.012 µM
IC50 [8, 18]: 0.0026 µM
IC50 [8, 19]: 0.065 µM
IC50 [8, 20]: 0.003 µM
IC50 [8, 21]: 0.019 µM
CC50 [15]: 80 µM
CC50 [9]: 87 µM
CC50 [10]: 65 µM
IC50 (rNiV-EGFP): 0.08 µM
CC50 [13]: 52 µM
IC50 (RSV-GFP; [22]): 0.031 µM
CC50 (in vitro): 54 µM

N#Cc1cccc(NC(=O)Cc2ccccc2)c1 [compound 3, reference compound]
IC50 [5]: 6 µM
IC50 [8, 16]: 26 µM
IC50 [8, 18]: 8 µM
inhibitory activity after 10-fold dilution of virus-compound mixture (virucidal activity) (virions (OP^neon/nLucP)): still efficiently prevented viral infectivity even after the dilution step
stabilizing effect on prefusion F-trimers [12]: strong stabilizing effect
effect on minigenome luciferase activity (RdRp complex activity) (CDV polymerase complex): luciferase activity remained similar to that for vehicle
CC50 (in vitro): 130 µM

C#CCCCN(C(=O)COc1cccc2c1OC(C)(C)C2)c1nc2ccccc2s1 [compound 23]
IC50 [8, 23]: 0.27 µM
